Format in all cases: functional
Test [1] relates to HaCaT. In words: Lethal dose for Proliferation of human HaCaT cells after 24 hr of treatment upon incubation for 6 h. As to conditions: read-out: LD50 (the source's name).
The subject of test [2] is HaCaT. In words: Lethal dose for Proliferation of human HaCaT cells after 24 hr of treatment upon incubation for 24 h. As to conditions: for CC50: read-out: LD50 (the source's name).
For test [3], the system named is MDCK. Kind of test: Lethal dose for Proliferation of […] after 24 hr of treatment upon incubation for 6 h. The settings on record: Canis lupus familiaris, read-out: LD50 (the source's name).

With `CCCCCCCCCCCCCCCCCCOC[C@H](COP(=O)([O-])OCC[N+](C)(C)C)O[C@@H]1O[C@H](CO)[C@@H](O)[C@H](O)[C@H]1O`, the CC50 in test [1] stood at 9 µM.
As to `CCCCCCCCCCCCCCCCCCOC[C@H](COP(=O)([O-])OCC[N+](C)(C)C)OC1OC(O)C(O)C(O)C1NC1C(=O)C(C)=C(C)C1=O` (stereo partly specified), in test [2], the CC50 came out at 5.5 µM.
On the same count and under the same terms, next, `CCCCCCCCCCCCCCCCCCOC[C@H](COP(=O)([O-])OCC[N+](C)(C)C)OC1OC(O)C(O)C(O)C1N` (stereo partly specified): 30 µM.
For the compound `CCCCCCCCCCCCCCCCCCOCC(COP(=O)([O-])OCC[N+](C)(C)C)OC` (stereo unspecified) [EDELFOSINE], the CC50 in test [3] amounted to 90 µM.
Regarding `CCCCCCCCCCCCCCCCOP(=O)([O-])OCC[N+](C)(C)C` [MILTEFOSINE], in test [3], the CC50 was determined as 200 µM. The LD10 in test [2] was found to be 20 µmol/L.

Values taken from ChEMBL document CHEMBL1141129, “Glucosamine-glycerophospholipids that activate cell-matrix adhesion and migration” (2005).
